Like-named read-outs stand apart in the source and are kept apart here.

One experiment addresses T1, BTK (Homo sapiens, UniProt Q06187).
T1 construct: High control=Cell group with added DMSO and without compound, indicating microplate readings without BTK degradation; endogenous in cells; host or cells: TMD-8
As to the kind of experiment: BTK degradation in TMD-8 cells (HTRF assay). The class given is cell-based. To be noted: 6 h treatment, IC50 (DC50) of BTK degradation. The method in brief:
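BTK remaining after compound treatment was measured by HTRF (337 nm excitation, 665/620 nm emission) in lysates of TMD-8 cells. Cells were exposed for 6 h to eight 6-fold-spaced concentrations in 0.2% DMSO. DC50 values were obtained from a Hill-equation fit (top, bottom, slope) of % inhibition.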

In the next experiment the test system is HEK-293 cells. Put plainly: HEK-293 cytotoxicity detection (CellTiter-Glo). The format is cell-based. The note with it: HEK-293 cells, 72 h incubation, CellTiter-Glo luminescence, IC50 of cell proliferation inhibition, read-out: HEK293. The method in brief: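 Four-parameter logistic fitting of percent inhibition versus concentration gives IC50. Luminescent ATP read-out (CellTiter-Glo) after 72 h compound treatment of HEK-293 cells, 8 doses in 4-fold steps from a 5 mM 500× DMSO stock, final DMSO 0.2%.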

T1 sequence (Q06187 whole entry): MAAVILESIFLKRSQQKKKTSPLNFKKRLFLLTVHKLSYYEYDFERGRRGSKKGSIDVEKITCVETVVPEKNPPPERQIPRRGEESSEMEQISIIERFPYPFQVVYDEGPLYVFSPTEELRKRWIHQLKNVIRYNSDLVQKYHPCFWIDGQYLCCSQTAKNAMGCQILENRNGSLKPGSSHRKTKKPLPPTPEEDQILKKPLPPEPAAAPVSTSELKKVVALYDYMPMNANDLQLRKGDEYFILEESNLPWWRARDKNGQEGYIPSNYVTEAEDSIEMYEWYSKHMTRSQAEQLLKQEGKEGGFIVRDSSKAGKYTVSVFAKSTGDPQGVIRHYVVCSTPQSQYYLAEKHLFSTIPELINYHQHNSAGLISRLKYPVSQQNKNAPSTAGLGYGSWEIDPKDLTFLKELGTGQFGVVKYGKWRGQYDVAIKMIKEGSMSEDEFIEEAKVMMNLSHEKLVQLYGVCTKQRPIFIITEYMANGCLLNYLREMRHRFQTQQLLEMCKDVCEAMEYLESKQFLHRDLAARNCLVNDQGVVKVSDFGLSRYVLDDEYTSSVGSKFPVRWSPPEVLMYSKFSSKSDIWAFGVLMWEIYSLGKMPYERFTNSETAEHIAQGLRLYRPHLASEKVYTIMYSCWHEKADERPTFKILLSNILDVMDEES

The compound `COc1cc2c(cc1N1CCN(C3CC(c4ccc([C@H]5CCC(=O)NC5=O)cc4)C3)CC1)[nH]c1ncnc(-c3ccc([C@@H](C)NC(=O)c4nc(C(C)(C)C)no4)c(C)c3F)c12` (stereo partly drawn) [Example 56, 3-(tert-butyl)-N—((R)-1-(4-(7-(4-(3-(4-((R)-2,6-dioxopiperidin-3-yl)phenyl)cyclobutyl)piperazin-1-yl)-6-methoxy-9H-pyrimido[4,5-b]indol-4-yl)-3-fluoro-2-methylphenyl)ethyl)-1,2,4-oxadiazole-5-carboxamide] had a 50% degradation concentration (DC50) on BTK of 10.3 nM. The IC50 in the experiment with HEK-293 cells (Homo sapiens) was more than 10000 nM.
On the same counts, the results for `COc1cc2c(cc1N1CCN(C3CCN(c4cccc(C5CCC(=O)NC5=O)c4)C3)CC1)[nH]c1ncnc(-c3ccc([C@@H](C)NC(=O)c4nc(C(C)(C)C)no4)c(C)c3F)c12` (stereo partly drawn) [Example 57, 3-(tert-butyl)-N-((1R)-1-(4-(7-(4-(1-(3-(2,6-dioxopiperidin-3-yl)phenyl)pyrrolidin-3-yl)piperazin-1-yl)-6-methoxy-9H-pyrimido[4,5-b]indol-4-yl)-3-fluoro-2-methylphenyl)ethyl)-1,2,4-oxadiazole-5-carboxamide] are 9.6 nM and more than 10000 nM.
With `COc1cc2c(cc1N1CCN(CC3CCN(c4ccc(N5CCC(=O)NC5=O)cc4)CC3)CC1)[nH]c1ncnc(-c3ccc([C@@H](C)NC(=O)c4noc(C(C)(C)C)n4)c(C)c3F)c12` [Example 58, (R)-5-(tert-butyl)-N-(1-(4-(7-(4-((1-(4-(2,4-dioxotetrahydropyrimidin-1(2H)-yl)phenyl)piperidin-4-yl)methyl)piperazin-1-yl)-6-methoxy-9H-pyrimido[4,5-b]indol-4-yl)-3-fluoro-2-methylphenyl)ethyl)-1,2,4-oxadiazole-3-carboxamide], the DC50 at BTK was 1.87 nM. In addition, in the experiment with HEK-293 cells (Homo sapiens), the IC50 was more than 10000 nM.
Compound `COc1cc2c(cc1N1CCN(C3CC(c4ccc([C@@H]5CCC(=O)NC5=O)cc4)C3)CC1)[nH]c1ncnc(-c3ccc([C@@H](C)NC(=O)c4noc(C(C)(C)C)n4)c(C)c3F)c12` (stereo partly drawn) [Example 59, 5-(tert-butyl)-N—((R)-1-(4-(7-(4-(3-(4-((S)-2,6-dioxopiperidin-3-yl)phenyl)cyclobutyl)piperazin-1-yl)-6-methoxy-9H-pyrimido[4,5-b]indol-4-yl)-3-fluoro-2-methylphenyl)ethyl)-1,2,4-oxadiazole-3-carboxamide] yielded a DC50 at BTK of 4.55 nM. In addition, the IC50 with HEK-293 cells (Homo sapiens) was more than 10000 nM.
In the same order, the values of `COc1cc2c(cc1N1CCN(C3CC(c4ccc([C@H]5CCC(=O)NC5=O)cc4)C3)CC1)[nH]c1ncnc(-c3ccc([C@@H](C)NC(=O)c4noc(C(C)(C)C)n4)c(C)c3F)c12` (stereo partly drawn) [Example 60, 5-(tert-butyl)-N—((R)-1-(4-(7-(4-(3-(4-((R)-2,6-dioxopiperidin-3-yl)phenyl)cyclobutyl)piperazin-1-yl)-6-methoxy-9H-pyrimido[4,5-b]indol-4-yl)-3-fluoro-2-methylphenyl)ethyl)-1,2,4-oxadiazole-3-carboxamide] are 4.97 nM and more than 10000 nM.
`COc1cc2c(cc1N1CCN(C3CCN(c4cccc(C5CCC(=O)NC5=O)c4)C3)CC1)[nH]c1ncnc(-c3ccc([C@@H](C)NC(=O)c4noc(C(C)(C)C)n4)c(C)c3F)c12` (stereo partly drawn) [Example 61, 5-(tert-butyl)-N-((1R)-1-(4-(7-(4-(1-(3-(2,6-dioxopiperidin-3-yl)phenyl)pyrrolidin-3-yl)piperazin-1-yl)-6-methoxy-9H-pyrimido[4,5-b]indol-4-yl)-3-fluoro-2-methylphenyl)ethyl)-1,2,4-oxadiazole-3-carboxamide]: the DC50 at BTK was 5.52 nM. Moreover, the IC50 with HEK-293 cells (Homo sapiens) was more than 10000 nM.
The compound `COc1cc2c(cc1N1CCN(CC3CCN(c4ccc(N5CCC(=O)NC5=O)cc4)CC3)CC1)[nH]c1ncnc(-c3cc(C)c([C@@H](C)NC(=O)c4nc(C(C)(C)C)no4)cc3F)c12` [Example 62, (R)-3-(tert-butyl)-N-(1-(4-(7-(4-((1-(4-(2,4-dioxotetrahydropyrimidin-1(2H)-yl)phenyl)piperidin-4-yl)methyl)piperazin-1-yl)-6-methoxy-9H-pyrimido[4,5-b]indol-4-yl)-5-fluoro-2-methylphenyl)ethyl)-1,2,4-oxadiazole-5-carboxamide] displayed a half-maximal degradation concentration (DC50) on BTK of 0.414 nM. Moreover, the IC50 in the experiment with HEK-293 cells (Homo sapiens) was more than 10000 nM.
Turning to `Cc1c([C@@H](C)NC(=O)c2noc(C(C)(C)C)n2)ccc(-c2ncnc3[nH]c4cc(N5CCN(C6CN(c7ccc(N8CCC(=O)NC8=O)cc7)C6)CC5)ccc4c23)c1F` [Example 63, (R)-5-(tert-butyl)-N-(1-(4-(7-(4-(1-(4-(2,4-dioxotetrahydropyrimidin-1(2H)-yl)phenyl)azetidin-3-yl)piperazin-1-yl)-9H-pyrimido[4,5-b]indol-4-yl)-3-fluoro-2-methylphenyl)ethyl)-1,2,4-oxadiazole-3-carboxamide], on BTK, it took 6.82 nM to reach half-maximal degradation (DC50). Moreover, in the experiment with HEK-293 cells (Homo sapiens), the IC50 is more than 10000 nM.
In the same order, the values of `Cc1c([C@@H](C)NC(=O)c2nc(C3(C)CC3)no2)ccc(-c2ncnc3[nH]c4cc(N5CCN(CC6CCN(c7ccc(N8CCC(=O)NC8=O)cc7)CC6)CC5)ccc4c23)c1F` [Example 64, (R)—N-(1-(4-(7-(4-((1-(4-(2,4-dioxotetrahydropyrimidin-1(2H)-yl)phenyl)piperidin-4-yl)methyl)piperazin-1-yl)-9H-pyrimido[4,5-b]indol-4-yl)-3-fluoro-2-methylphenyl)ethyl)-3-(1-methylcyclopropyl)-1,2,4-oxadiazole-5-carboxamide] are 3.02 nM and more than 10000 nM.
On BTK, `Cc1c([C@@H](C)NC(=O)c2nc(C3(C)CC3)no2)ccc(-c2ncnc3[nH]c4cc(N5CCN(C6CC(c7ccc([C@@H]8CCC(=O)NC8=O)cc7)C6)CC5)ccc4c23)c1F` (stereo partly drawn) [Example 65, N—((R)-1-(4-(7-(4-(3-(4-((S)-2,6-dioxopiperidin-3-yl)phenyl)cyclobutyl)piperazin-1-yl)-9H-pyrimido[4,5-b]indol-4-yl)-3-fluoro-2-methylphenyl)ethyl)-3-(1-methylcyclopropyl)-1,2,4-oxadiazole-5-carboxamide] showed a DC50 of 4.24 nM. The IC50 in the experiment on HEK-293 cells (Homo sapiens) is more than 10000 nM.
On the same counts, the results for `Cc1c([C@@H](C)NC(=O)c2nc(C3(C)CC3)no2)ccc(-c2ncnc3[nH]c4cc(N5CCN(C6CC(c7ccc([C@H]8CCC(=O)NC8=O)cc7)C6)CC5)ccc4c23)c1F` (stereo partly drawn) [Example 66, N—((R)-1-(4-(7-(4-(3-(4-((R)-2,6-dioxopiperidin-3-yl)phenyl)cyclobutyl)piperazin-1-yl)-9H-pyrimido[4,5-b]indol-4-yl)-3-fluoro-2-methylphenyl)ethyl)-3-(1-methylcyclopropyl)-1,2,4-oxadiazole-5-carboxamide] are 4.1 nM and more than 10000 nM.
In the same order, the values of `Cc1cc(-c2ncnc3[nH]c4cc(N5CCN(C6CC(c7ccc([C@@H]8CCC(=O)NC8=O)cc7)C6)CC5)ccc4c23)ccc1[C@@H](C)NC(=O)c1nc(C2(C)CC2)no1` (stereo partly drawn) [Example 67, N—((R)-1-(4-(7-(4-(3-(4-((S)-2,6-dioxopiperidin-3-yl)phenyl)cyclobutyl)piperazin-1-yl)-9H-pyrimido[4,5-b]indol-4-yl)-2-methylphenyl)ethyl)-3-(1-methylcyclopropyl)-1,2,4-oxadiazole-5-carboxamide] are 1.27 nM and more than 10000 nM.
At BTK, `Cc1cc(-c2ncnc3[nH]c4cc(N5CCN(C6CC(c7ccc([C@@H]8CCC(=O)NC8=O)cc7)C6)CC5)ccc4c23)ccc1[C@@H](C)NC(=O)c1nc(C2(C)CC2)no1` (stereo partly drawn) [Example 68, N—((R)-1-(4-(7-(4-(3-(4-((S)-2,6-dioxopiperidin-3-yl)phenyl)cyclobutyl)piperazin-1-yl)-9H-pyrimido[4,5-b]indol-4-yl)-2-methylphenyl)ethyl)-3-(1-methylcyclopropyl)-1,2,4-oxadiazole-5-carboxamide] displayed a DC50 of 1.6 nM. Also, in the experiment with HEK-293 cells, the IC50 was more than 10000 nM.
In the case of `COc1cc2c(cc1N1CCN(Cc3ccc4c(c3)n(C)c(=O)n4C3CCC(=O)NC3=O)CC1)[nH]c1ncnc(-c3ccc([C@@H](C)NC(=O)c4nc(C(C)(C)C)no4)c(C)c3)c12` (stereo partly drawn) [Example 69, 3-(tert-butyl)-N-((1R)-1-(4-(7-(4-((1-(2,6-dioxopiperidin-3-yl)-3-methyl-2-oxo-2,3-dihydro-1H-benzo[d]imidazol-5-yl)methyl)piperazin-1-yl)-6-methoxy-9H-pyrimido[4,5-b]indol-4-yl)-2-methylphenyl)ethyl)-1,2,4-oxadiazole-5-carboxamide], half-maximal degradation at BTK (DC50) was put at 0.266 nM. Also, the IC50 in the experiment on HEK-293 cells (Homo sapiens) is more than 10000 nM.
On the same counts, the results for `CC(C)(C)c1noc(C(=O)NCC2CCN(c3ncnc4[nH]c5cc(N6CCN(CC7CCN(c8ccc(N9CCC(=O)NC9=O)cc8)CC7)CC6)ccc5c34)CC2)n1` [Example 70, 3-(tert-butyl)-N-((1-(7-(4-((1-(4-(2,4-dioxotetrahydropyrimidin-1(2H)-yl)phenyl)piperidin-4-yl)methyl)piperazin-1-yl)-9H-pyrimido[4,5-b]indol-4-yl)piperidin-4-yl)methyl)-1,2,4-oxadiazole-5-carboxamide] are 140 nM and 1990 nM.
On the same counts, the results for `COc1cc2c(cc1N1CCN(Cc3ccc4c(c3)n(C)c(=O)n4C3CCC(=O)NC3=O)CC1)[nH]c1ncnc(-c3ccc([C@@H](C)NC(=O)c4nc(C(C)(C)C)no4)c(C)c3F)c12` (stereo partly drawn) [Example 71, 3-(tert-butyl)-N-((1R)-1-(4-(7-(4-((1-(2,6-dioxopiperidin-3-yl)-3-methyl-2-oxo-2,3-dihydro-1H-benzo[d]imidazol-5-yl)methyl)piperazin-1-yl)-6-methoxy-9H-pyrimido[4,5-b]indol-4-yl)-3-fluoro-2-methylphenyl)ethyl)-1,2,4-oxadiazole-5-carboxamide] are 9.24 nM and more than 10000 nM.

As a reminder, the DC50 is the concentration giving 50% degradation. Lower therefore signals degradation at low concentration.
